For this assay, the target named is T1, hCGRP (human calcitonin gene-related peptide) receptor (Homo sapiens, UniProt O60894+Q16602).
T1 construct: Cultured SK-N-MC neuroblastoma cells that endogenously express the hCGRP receptor (ATCC); host or cells: SK-N-MC neuroblastoma cells
T1 sequence (Q16602 23-461): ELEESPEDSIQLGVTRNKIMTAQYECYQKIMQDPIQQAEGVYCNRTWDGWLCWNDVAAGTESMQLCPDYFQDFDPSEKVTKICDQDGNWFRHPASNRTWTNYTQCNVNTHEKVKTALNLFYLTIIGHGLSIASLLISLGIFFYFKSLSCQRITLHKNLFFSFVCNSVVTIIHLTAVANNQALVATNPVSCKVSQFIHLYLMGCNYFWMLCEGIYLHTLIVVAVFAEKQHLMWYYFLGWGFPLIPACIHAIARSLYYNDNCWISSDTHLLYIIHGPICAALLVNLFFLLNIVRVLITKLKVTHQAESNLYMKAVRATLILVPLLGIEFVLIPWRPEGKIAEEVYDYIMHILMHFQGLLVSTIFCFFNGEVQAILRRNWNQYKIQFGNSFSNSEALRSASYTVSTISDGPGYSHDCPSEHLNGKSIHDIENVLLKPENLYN
T1 sequence (O60894 27-148): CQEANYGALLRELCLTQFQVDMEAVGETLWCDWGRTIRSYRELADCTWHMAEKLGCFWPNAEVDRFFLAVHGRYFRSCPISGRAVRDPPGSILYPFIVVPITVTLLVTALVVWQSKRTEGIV
Description: Inhibition of cAMP production by CGRP receptor antagonists in SK-N-MC neuroblastoma cells (HTRF). It is filed as cell-based. The settings on record: human CGRP 0.8 nM as agonist, Kb estimated as agonist-corrected IC50, read-out: hCGRP Kb ± SD. The procedure: The hCGRP (human calcitonin gene-related peptide) receptor is functionally coupled to the Gas proteins. Stimulation by hCGRP results in an increased synthesis of intracellular cAMP and can be blocked by the addition of receptor antagonists. Receptor activity is thus a reflection of the amount of cAMP present within cells which can be detected using standard in vitro technology.
Cell Culture: Cultured SK-N-MC neuroblastoma cells that endogenously express the hCGRP receptor (ATCC) are grown in Eagle's Minimum essential medium (HYCLONE™) supplemented with 10% heat-inactivated Fetal bovine serum (FBS; GIBCO®), Non-Essential Amino Acids (GIBCO®), 1 mM sodium pyruvate, 2 mM L-glutamine, 100 U/mL of penicillin, and 10 μg/mL of streptomycin to about 70% confluency. After providing fresh medium, the cells are incubated at 37° C. overnight. On the day of the assay, cells are detached using ACCUTASE® (MP Biomedicals), resuspended in assay buffer [Hank's Balanced Salt Solution/Dulbecco's phosphate-buffered saline with […] each of CaCl2 and MgCl2 mixed 1:2, 3.3 mM 4-(2-hydroxyethyl)-1-piperazineethanesulfonic acid, 0.03% bovine serum albumin, and 0.5 mM 1-methyl-3-isobutylxanthine (as inhibitor of cAMP)], and seeded 3-5K/well into 384-well, poly-D-lysine coated white plates (BD Biosciences).
Inhibition of cAMP Production: For dose-response studies, compounds are serially diluted 1:3 in dimethyl sulfoxide and then 1:10 into assay buffer. […]
Data Analysis: The amount of intracellular cAMP is quantitated using HTRF technology (Cisbio) as per vendor instructions. […] The HTRF signal is immediately detected using an ENVISION® plate reader (Perkin-Elmer) to calculate the ratio of fluorescence at […]. […] Relative […] values are calculated from the top-bottom range of the concentration response curve using a four-parameter logistic curve fitting program (ACTIVITYBASE® v5.3.1.22 or GENEDATA SCREENER® v12.0.4), and Kb values are estimated as agonist-corrected IC50 values using the equation: […]
Turning to `Cc1cc(N2CCC2)cc(OCc2ccc([C@@H](C)[C@@]3(C)C(=O)NC[C@@H]3CF)cc2)n1` [Example 1, (3R,4R)-3-[(1R)-1-[4-[[4-(azetidin-1-yl)-6-methyl-2-pyridyl]oxymethyl]phenyl]ethyl]-4-(fluoromethyl)-3-methyl-pyrrolidin-2-one], the Kb is 0.08 ± 0.01 nM. For `Cc1cc(N2CC(F)C2)cc(OCc2ccc([C@@H](C)[C@@]3(C)C(=O)NC[C@@H]3C)cc2)n1` [Example 2, (3R,4R)-3-[(1R)-1-[4-[[4-(3-fluoroazetidin-1-yl)-6-methyl-2-pyridyl]oxymethyl]phenyl]ethyl]-3,4-dimethyl-pyrrolidin-2-one] the value was 0.14 ± 0.02 nM; for `Cc1cc(N2CC(F)C2)cc(OCc2ccc([C@@H](C)[C@@]3(C)C(=O)NC[C@@H]3CF)cc2)n1` [Example 3, (3R,4R)-3-[(1R)-1-[4-[[4-(3-fluoroazetidin-1-yl)-6-methyl-2-pyridyl]oxymethyl]phenyl]ethyl]-4-(fluoromethyl)-3-methyl-pyrrolidin-2-one], 0.1 ± 0.02 nM.

The record behind these values is US20230096051A1, “CGRP ANTIGONISTS USEFUL AS TRACER COMPOUNDS FOR POSITRON EMISSION TOMOGRAPHY” (Eli Lilly and Company, priority 2019, published 2023).
